The test system of assay [1] is primary human dermal fibroblasts (HDF). The assay can be described thus: Primary human dermal fibroblast (HDF) proliferation assay (2D), with or without wound exudate. The assay is classed as cell-based. The following applies: for enhancement of PARP inhibitor effect on fibroblast proliferation: added to PARP inhibitor titration; for cell proliferation under wound exudate-induced inhibition: FIG. 22, WE #43 and #78 used with veliparib; for HDF proliferation, PARP inhibitor plus PDGF: PARP inhibitor dose series + PDGF 20 ng/ml, WE #78 (FIG. 18). How it is done: (§1) Primary human dermal fibroblasts (HDF) were purchased from CELLnTEC, Bern. They were routinely grown in Dulbecco's modified Eagle's medium (DMEM) containing 10% FCS, 2 mM glutamine, and 100 U/ml penicillin/100 μg/ml streptomycin. Media, antibiotics, and glutamine were bought from Lonza. The cells were used at passage 5-15. Cells were trypsinized and seeded at 5000 cells/well in 200 μl into the inner wells of 96-well plates. The outer wells were loaded with sterile water. The cells were allowed to adhere overnight and then incubated for 72 hours at 37° C. under the following conditions: graded compound concentrations or 20 ng/ml PDGF-BB (Tonbo Biosciences) in the absence or presence of different dilutions of sterile-filtered WE in medium. For control samples, 200p1 medium was added instead of specific stimuli. Alternatively, the cells were seeded into 384-well plates at 2500 cells/well directly together with test compounds or growth factors and WE or medium in a total volume of […].
(§2) At the end of the 72-hour incubation period, supernatants were removed for the determination of IL-1ß, and the cells were fixed with 4% paraformaldehyde (Morphisto) for 15 minutes at room temperature and washed 3 times with PBS. A control plate was fixed after the overnight adherence of the cells (day 1) to determine the starting cell number.
Total cellular protein was determined as a measure of cell number by staining the fixed cells with sulforhodamine B (SRB, Sigma). A 0.4% SRB solution in 1% acetic acid was added to the wells for 30 minutes. The wells were then washed with 1 acetic acid until the wash solution remained colorless. After drying, the dye was eluted with 10 mM Tris.HCl, pH8.5, and absorbance was measured either at 550 or 492 nm for lower and higher cell densities, respectively. The average absorbance of the sample representing the day 1 starting cell number (for 96-well plates) was subtracted from the absorbance values of the WE-treated cells.
All experiments were carried out in triplicate for each sample and concentration, and means±standard deviation (SD) were used for the evaluation of the experiment. Results are expressed as percentage of control values for unstimulated cells.
Low molecular weight compounds (see list in Table 1) were dissolved in DMSO (Bioreagent for cell culture, Sigma) at 10 mM or 100 mM and diluted at least 1:1000 in medium for cellular assays (final DMSO concentration ≤0.1%).
(§3) Cells were incubated with compounds for 72 hours in proliferation assays and up to 8 days for FDM assay (refreshed after 4 days). When compounds were tested for their effect on WE stimulation, the incubation of cells with compounds was started and ended simultaneously with WE-incubation.

For assay [2] the test system is unchanged. The assay can be described thus: Fibroblast-derived matrix (FDM) formation assay (3D), with or without wound exudate. The assay is classed as cell-based. The settings on record: for FDM formation, veliparib combined with glucocorticoid: WE #78, patient with diabetes, immunosuppression after kidney transplantation (FIG. 7). How it is done:
HDF cells were seeded at 5000 cells/well on day −3 into 96-well tissue culture plates (1250 cells/well for 384-well plates), which had been pre-coated for 1 hour at 37° C. with 0.2% gelatin solution (Sigma). When the cells reached confluence (=day 0), a matrix promoting supplement (vitamin C: 2-phospho-L-ascorbic acid trisodium salt, 100 μg/ml; Sigma) was added together with test samples containing PDGF-BB, TGF-ß1 or graded concentrations of compounds −/+WE as described for the HDF proliferation assay. After 4 days, medium was replaced by fresh vitamin C- and stimulus- as well as compound-containing medium, maintaining the conditions initiated on day 0. TGF-ß1 and PDGF-BB were included as positive controls to promote FDM formation and cell growth, respectively. After a total incubation time of 8 days, FDM production was measured in fixed cultures via SRB staining and evaluated as described above. In some cases, the experiment was stopped and evaluated already on day 4.
Low molecular weight compounds (see list in Table 1) were dissolved in DMSO (Bioreagent for cell culture, Sigma) at 10 mM or 100 mM and diluted at least 1:1000 in medium for cellular assays (final DMSO concentration ≤0.1%). Compounds were typically tested in half-logarithmic dilution series (1:3.33), starting at 10 μM or 100 μM as the highest compound concentration.
as §3

The next assay has as its system IL-1ß. The assay can be described thus: IL-1ß secretion by HDF in the presence of wound exudate (ELISA). The assay is classed as cell-based, human. The settings on record: FIG. 22; WE #43 and #78 used with veliparib. As for the experimental part:
as §1, §2
IL-1ß levels were determined with a commercial ELISA kit. The amount of IL-1ß contained in the wound exudate added to the cells was subtracted from the total IL-ß in the supernatants in order to determine the cytokine secreted by the cells.
In general terms: In an ELISA, binding on a coated surface is turned into a signal by an enzyme label.

[3] abbreviates: presence of wound exudate (WE) of patients, several or unspecified WE.
[4] abbreviates: presence of WE #78 (diabetic patient).
[5] abbreviates: absence of wound exudate (normal medium).
Setting [6] is: presence of ⅔ of the wound exudates tested.

Entries after “also recorded” stand apart in the source; their conditions may differ.

With `C[C@]12CCC(=O)C=C1CC[C@@H]1[C@@H]2[C@@H](O)C[C@@]2(C)[C@H]1CC[C@]2(O)C(=O)CO` [hydrocortisone, Hydrocortisone], the “fibroblast (HDF) proliferation” value in assay [1] (setting [3]) is listed as “Qualitatively identical results; also recorded: effect was confirmed”.

As for `CN(C)CC(=O)Nc1ccc2[nH]c(=O)c3ccccc3c2c1.Cl` [PJ-34, N-(6-Oxo-5,6-dihydro-phenanthridin-2-yl)-N,N-dimethylacetamide.HCl], the “fibroblast (HDF) proliferation” value in assay [1] (presence of WE #43) and in assay [1] (setting [4]) was “less active or inactive” throughout.

For Medroxyprogesterone, in assay [1] (setting [3]), the “fibroblast (HDF) proliferation” value was “Qualitatively identical results; also recorded: surprisingly enhances HDF proliferation and ECM formation; also recorded: effect was confirmed”. For the same molecule, the results for the “FDM formation, veliparib combined with glucocorticoid” value in assay [2] and in assay [2] (listed as MED) were “enhance the effect of veliparib on rescuing fibroblast-derived matrix (FDM) formation after wound exudate treatment” and “enhance the effect of veliparib on rescuing FDM formation after WE treatment”, respectively. Further, in assay [2] (presence of wound exudate, WE not specified (FIG. 6: microscopy)), the “fibroblast-derived matrix (FDM/ECM) formation” value was “surprisingly enhances HDF proliferation and ECM formation”.

As to `C[C@]12C=CC(=O)C=C1CC[C@@H]1[C@@H]2[C@@H](O)C[C@@]2(C)[C@H]1CC[C@]2(O)C(=O)CO` [prelone], the “fibroblast (HDF) proliferation” value in assay [1] (setting [3]) is reported as “Qualitatively identical results”.

Turning to `C[C@]12C=CC(=O)C=C1CC[C@@H]1[C@@H]2[C@@H](O)C[C@@]2(C)[C@H]1CC[C@]2(O)C(=O)CO` [prednisolone, Prednisolone], the “fibroblast (HDF) proliferation” value in assay [1] (setting [3]) is reported as “Qualitatively identical results; also recorded: effect was confirmed”.

On to `Oc1cccc2c(O)nccc12` [1,5-IQD, 1,5-Isoquinolinediol], for which the “fibroblast (HDF) proliferation” value in assay [1] (presence of WE #43) and in assay [1] (setting [4]) was “less active or inactive” each time.

Regarding `O=C1O[C@H]([C@@H](O)CO)C(O)=C1O` [vitamin C, ascorbic acid], the “fibroblast (HDF) proliferation” value was “enhances HDF proliferation/ECM formation; also recorded: enhances both fibroblast proliferation” in assay [1] (setting [5]) and “no effect on HDF proliferation/ECM formation; also recorded: no effect on fibroblast proliferation in the 2D assay” in assay [1] (setting [6]). The “enhancement of PARP inhibitor effect on fibroblast proliferation” value is “strong and consistent synergistic effect could be confirmed; also recorded: synergistically enhance the PARP inhibitor compound effects” in assay [1] (WE #43, different patient (FIG. 15)); “enhance the positive enhancing effect of the PARP antagonists; also recorded: synergistically enhance the PARP inhibitor compound effects” in assay [1] (dexamethasone 3 nM, vitamin C 100 μg/ml, WE #78 (FIG. 14)). The “fibroblast-derived matrix (FDM/ECM) formation” value in assay [2] (absence of wound exudate) is “enhances both fibroblast proliferation in the fibroblast proliferation assay (also called 2D assay) and fibroblast-derived matrix (FDM) formation”. Also, the “fibroblast-derived matrix (FDM) formation” value in assay [2] (setting [6]) was “no effect on fibroblast proliferation in the 2D assay or fibroblast-derived matrix (FDM) formation in the 3D assay”.

Regarding `C[C@@H]1C[C@H]2[C@@H]3C[C@H](F)C4=CC(=O)C(Cl)=C[C@]4(C)[C@@]3(F)[C@@H](O)C[C@]2(C)[C@@]1(O)C(=O)CO` [halomethasone], the “fibroblast (HDF) proliferation” value in assay [1] (setting [3]) is on record as “Qualitatively identical results”.

In the case of `CC1(COc2ccc3c(c2)ncn3-c2ccc3cccc(N4CCC(N)CC4)c3n2)COC1` [crenolanib, Crenolanib], in assay [1] (crenolanib 1 μM, PDGF 20 ng/ml, absence of WE (FIG. 19)), the “effect on PDGF-enhanced proliferation” value is on record as “completely abrogated”. The “fibroblast (HDF) proliferation” value in assay [1] (setting [4]) was “without any effect”.

For the molecule `C[C@H]1C[C@H]2[C@@H]3CCC4=CC(=O)C=C[C@]4(C)[C@@]3(Cl)[C@@H](O)C[C@]2(C)[C@@]1(O)C(=O)CO` [beclomethasone], in assay [1] (setting [3]), the “fibroblast (HDF) proliferation” value is “Qualitatively identical results”.

For `COC1CCN(C(=O)c2cc(Cc3n[nH]c(=O)c4ccccc34)ccc2F)CC1` [AZD-2461], the “cell proliferation under wound exudate-induced inhibition” value in assay [1] is “enhanced cell proliferation”. The “fibroblast-derived matrix (FDM) formation” value in assay [2] (presence of WE #78 (FIG. 9)) is recorded as “strong positive effect”. Besides, in the assay on IL-1ß, the “IL-1ß secretion induced by wound exudate” value was “reducing IL-1ß secretion”.

As to `CN(C)Cc1ccc(-c2nc3cccc4c3n2CCNC4=O)cc1` [AG-14361], in assay [1], the “cell proliferation under wound exudate-induced inhibition” value is on record as “enhanced cell proliferation”. Besides, the “fibroblast-derived matrix (FDM) formation” value in assay [2] (presence of WE #78 (FIG. 9)) was “strong positive effect”. The “IL-1ß secretion induced by wound exudate” value with IL-1ß was “reducing IL-1ß secretion”.

With `CNCc1ccc(-c2[nH]c3cc(F)cc4c3c2CCNC4=O)cc1` [rucaparib], in assay [1], the “cell proliferation under wound exudate-induced inhibition” value is given as “enhanced cell proliferation” and the “HDF proliferation, PARP inhibitor plus PDGF” value was “even further enhanced by the addition of PDGF”. Also, in assay [1] (setting [4]), the “fibroblast (HDF) proliferation” value was “dose-dependent increase of HDF proliferation”. Besides, the “fibroblast-derived matrix (FDM) formation” value in assay [2] (presence of WE #78 (FIG. 9)) is listed as “strong positive effect”. For the same molecule, in the assay on IL-1ß, the “IL-1ß secretion induced by wound exudate” value is on record as “reducing IL-1ß secretion”.

For the molecule `NC(=O)c1cccc(N)c1` [3-AB, 3-Aminobenzamide], the “fibroblast (HDF) proliferation” value in assay [1] (presence of WE #43) and in assay [1] (setting [4]) was “less active or inactive” throughout.

With `O=C(c1cc(Cc2n[nH]c(=O)c3ccccc23)ccc1F)N1CCN(C(=O)C2CC2)CC1` [olaparib], in assay [1], the “cell proliferation under wound exudate-induced inhibition” value was “enhanced cell proliferation” and the “HDF proliferation, PARP inhibitor plus PDGF” value is given as “even further enhanced by the addition of PDGF”. In addition, the “fibroblast (HDF) proliferation” value in assay [1] (setting [4]) is recorded as “dose-dependent increase of HDF proliferation”. In addition, the “fibroblast-derived matrix (FDM) formation” value in assay [2] (presence of WE #78 (FIG. 9)) was “strong positive effect”. In addition, the “IL-1ß secretion induced by wound exudate” value in the assay on IL-1ß is given as “reducing IL-1ß secretion”.

B1: PDGF: Platelet-derived growth factor, protein growth factor (Tonbo Biosciences) (protein, UniProt P01127 82-190, looked up)
Platelet-derived growth …: SLGSLTIAEPAMIAECKTRTEVFEISRRLIDRTNANFLVWPPCVEVQRCSGCCNNRNVQCRPTQVQLRPVQVRKIEIVRKKPIFKKATVTLEDHLACKCETVAAARPVT
modifications: PDGF-BB homodimer
For the molecule B1, the “HDF proliferation, PDGF added to talazoparib” value in assay [1] (PDGF 20 ng/ml + talazoparib 0.3 μM, WE #78 (FIG. 19)) was “further enhanced this recovery”. For the same molecule, the “fibroblast (HDF) proliferation” value in assay [1] (setting [5]) is “induces HDF proliferation; also recorded: enhances proliferation”; in assay [1] (setting [4]), “has no effect; also recorded: inactive; also recorded: without any effect”.

These data come from patent publication US20200129476A1, “PARP Inhibitor in Combination with a Glucocorticoid and/or Ascorbic Acid and/or a Protein Growth Factor for the Treatment of Impaired Wound Healing” (AKRIBES BIOMEDICAL GMBH, priority 2017, published 2020).
